# Laboratory results: article PMC7312375, “A Novel, Pan-PDE Inhibitor Exerts Anti-Fibrotic Effects in Human Lung Fibroblasts via Inhibition of TGF-β Signaling and Activation of cAMP/PKA Signaling” (International Journal of Molecular Sciences, 2020)
# What was measured:
# Assay type in all cases: cell-based, human
# MRC-5 cells [1] = assay: TGF-β1-induced collagen gel contraction assay; conditions: 10 µM, 1 h pre-incubation, 6 h TGF-β1; compared to TGF-β1 alone
# Method: A collagen cell contraction assay was performed according to manufactures’ instructions (Cell Biolabs, INC., San Diego, CA, USA). Briefly, MRC-5 was harvested and mixed with a collagen solution. After polymerization, collagen gel lattices were cultured for two days, during which mechanical tension develops. Before releasing the stressed matrix, MRC-5 cells were pre-treated with study compounds (10 µM) for 1 h. Then collagen gels were gently released from the sides of the culture dishes and contraction in the presence of study compounds, and TGF-β1 was initiated. The collagen gel size was monitored at various time points and quantified with the Fiji ImageJ Software (National Institutes of Health, Bethesda, MD, USA, version 1.52q). The experiments were run three times.
# MRC-5 cells [2] = assay: cAMP ELISA; conditions: 10 µM, 30 min
# Method: MRC-5 cells were seeded in standard culture medium for 24 h and then serum-starved for 2 h in HBSS. The study compounds (10 µM) were added to the MRC-5 cultures and after 30 min of incubation, the intracellular cAMP level in cell lysates was measured using a colorimetric cAMP ELISA Kit according to the manufacturer’s protocol (Cell Biolabs, INC., San Diego, CA, USA). Obtained results were normalized to total protein content in each sample. The experiments were run two times in duplicates.
# [3] = system: TGF-β1-induced MRC-5 cells; assay: Protein kinase A activity; conditions: 10 µM 30 min, then TGF-β1 30 min
# Method: Protein Kinase A (PKA) activity in MRC-5 cells was determined using a PKA Colorimetric Activity Kit (Invitrogen, Carlsbad, CA, USA) according to the manufacturer’s protocol. MRC-5 cells were seeded in standard culture medium, and after 48 h they were serum-starved for 2 h in HBSS, followed by the addition of study compounds (10 µM) and incubation for 30 min. Finally, TGF-β1 was administered, and the samples were incubated for an additional 30 min. Whole cell lysates were used in the assay. The amount of PKA was normalized to the total protein content in each sample. The experiments were run two times in duplicates.
# [4] = system: TGF-β1-induced MRC-5 cells; assay: Western blot of p-CREB; conditions: 10 µM
# Method: Western Blot analysis was performed according to a standard protocol. Briefly, MRC-5 cells were pre-incubated with the study compounds (10 µM) for 1 h, followed by 48 h incubation with TGF-β1 and then lysed in RIPA buffer (RIPA Lysis and Extraction Buffer, Thermo Fisher Scientific, Waltham, MA, USA) and supplemented with protease inhibitor cocktail and phosphatase inhibitor cocktail (both from Sigma Aldrich, St. Louis, MO, USA). Equal amounts of protein (30 µg) were separated using 10% SDS-polyacrylamide gels and transferred onto polyvinylidene difluoride (PVDF) membranes (Thermo Fisher Scientific, Waltham, MA, USA). […] ROD was measured according to the NIH guidelines with Fiji ImageJ Software. […]
# [5] = system: TGF-β1-induced MRC-5 cells; assay: Immunofluorescence, nuclear localization of p-CREB; conditions: 10 µM
# Method: For immunocytochemical labeling, MRC-5 cells were seeded on glass coverslips. Study compounds (10 µM) were added 1 h before TGF-β1 treatment, and analysis was performed after 1 h (p-Smad-2 and p-CREB detection) or 48 h (α-SMA detection) of incubation. Cells were fixed in methanol or 4% formaldehyde solution, permeabilized in 0.2% or 0.1% Triton X-100 solution (for p-Smad-2 and p-CREB or α-SMA, respectively). After incubation in blocking solution the following primary antibodies: rabbit polyclonal, anti-phospho-Smad-2 (Ser465, Ser467) antibody (#44-244G, Thermo Fisher Scientific, Waltham, MA, USA); rabbit polyclonal, anti-phospho-CREB1 (Ser133) antibody (#orb213775, Biorbyt, Cambridge, United Kingdom); mouse monoclonal, anti-α-SMA antibody (#MA5-11547, Thermo Fisher Scientific, Waltham, MA, USA) and secondary antibodies: goat anti-rabbit Alexa Fluor 546 conjugated antibody and goat anti-mouse Alexa Fluor 488 conjugated antibody (#A-11010 and #A-11001, respectively, Invitrogen, Carlsbad, CA, USA) were used. Nuclei were counterstained with Hoechst 33342 dye (Thermo Fisher Scientific, Waltham, MA, USA). Slides were mounted in ProLong™ Glass Antifade Mountant (Invitrogen, Carlsbad, CA, USA) and analyzed using Leica DMiL LED Fluo microscope (for α-SMA and p-CREB visualization, 40× objective) or Leica DMi8 with Thunder Imaging System (for p-Smad-2 visualization, 40× objective), all equipped with LAS-X Software (Leica Microsystems GmbH, Wetzlar, Germany). Experiments were run four times using five randomly selected fields of view, at the same fluorescent time exposure and in a blind-folded manner.
structure (smiles),measurement,setting,value
"C=C[C@@]1(C)CC(=O)[C@]2(O)[C@@]3(C)[C@@H](O)CCC(C)(C)[C@@H]3[C@H](O)[C@H](OC(C)=O)[C@@]2(C)O1 [forskolin, reference compound]",size of collagen gel lattices (TGF-β1-induced contraction),MRC-5 cells [1],showed similar properties as 145 or IBMX
same,increase in cAMP level compared to control,MRC-5 cells [2],5.7 fold
same,Protein kinase A activity in TGF-β1-induced fibroblasts,[3],the highest
same,CREB phosphorylation (immunoblot),[4],increased CREB phosphorylation
same,elevation of fraction of MRC-5 cells with nuclear p-CREB localization,[5],76%
